In patent US9828351B2, “Enzyme interacting agents” (MONASH UNIVERSITY, priority 2014, dated 2017):

Key:
[1] = target: T1, SphK1a in Flpln-SphK1a cells (Flp-In T-Rex HEK293) (Homo sapiens, UniProt Q9NYA1); assay: SphK1 proteasomal degradation study (immunoblotting); type: cell-based; conditions: 10 μM test compound, 24 h
T1 construct: expressed in transfected cells; host or cells: Flp-In T-Rex HEK293 cells, doxycycline-induced
Method: These studies were performed as previously described for the drug SKI-II (C. Loveridge et al. J. Biol. Chem. 2010, 285, 38891). […] After 24 h cells were treated with 10 μm test compound, 10 μm MG132, or both. DMSO was used as the vehicle control. After a further 24 h, cells were harvested, lysed, and subjected to SDS-PAGE and immunoblotting with anti-FLAG (Sigma), anti-ERK1/2 (Promega), or anti-a-tubulin (Abcam) antibodies.

[2] = target: T2, recombinant his tagged human SphK1 (Homo sapiens, UniProt Q9NYA1); assay: SphK1 activity assay (32P-labelled S1P production); type: biochemical; conditions: 10 μM compound; % of activity compared to control (DMSO vehicle only)
T2 construct: His tag; made in house; host or cells: insect cells (baculovirus system)
T2 sequence (Q9NYA1 whole entry): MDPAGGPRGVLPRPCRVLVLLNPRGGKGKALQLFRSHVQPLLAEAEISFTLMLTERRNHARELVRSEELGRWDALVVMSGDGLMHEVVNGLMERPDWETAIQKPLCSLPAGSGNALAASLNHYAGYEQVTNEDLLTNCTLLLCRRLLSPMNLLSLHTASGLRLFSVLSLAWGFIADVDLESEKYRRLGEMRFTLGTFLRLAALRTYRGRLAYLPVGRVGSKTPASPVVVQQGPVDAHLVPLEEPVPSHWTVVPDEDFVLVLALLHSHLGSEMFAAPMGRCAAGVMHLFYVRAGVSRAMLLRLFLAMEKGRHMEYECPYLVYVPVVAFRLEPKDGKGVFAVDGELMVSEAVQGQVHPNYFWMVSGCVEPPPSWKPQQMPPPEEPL
Method: (§1) The SphK assays employed, measure SphK activity through the production of ^32P-labelled S1P following the addition of exogenous Sph and [γ^32P] ATP.
(§2) Activities of SphK1 and SphK2 were determined using identical assay conditions with the exception that SphK1 assays used 3 ng/assay recombinant his tagged human SphK1 (made in the lab in a baculovirus system using insect cells), while SphK2 assays used 30 ng/assay recombinant human SphK2 (purchased by Johnson and Johnson).
(§3) Compounds were dissolved in DMSO at 10 mM, the mixture was vortexed (and sonicated if necessary). Stock solutions were kept at 4° C. until used.
(§4) Aliquots were made containing 100 μM drug compound. These aliquots were then diluted in assay buffer: 100 mM tris/HCl pH 7.4, 100 mM NaCl, 1 mM sodium orthovanadate, 10 mM NaF to make up a 10 μM solution.
(§5) Recombinant enzyme was diluted in assay buffer (above) to make up a final concentration of 0.03 ng/μL (SphK1) or 0.33 ng/μL (SphK2).
(§6) 40 μL recombinant enzyme was added to an Eppendorf® Safe-Lock® microcentrifuge tube. This was followed by the addition of drug compound from prepared aliquots, before adding ATP, [γ^32P]ATP and Sph. Note: ATP stock is made up in 1M Tris pH 7.4 and 200 mM MgCl2. This allows ATP to complex with Mg and be available as a substrate.
(§7) The rest of the reaction mixture was then added to the enzyme sample (Table 1). All reactions were performed as triplicates.
(§8) Reaction mixture was prepared with sufficient volume to assay all of the required samples. To do this, each of the volumes shown was multiplied by n+1, where n is the number of samples to be assayed. Assay buffer used is made up of 100 mM tris/HCl pH 7.4, 100 mM NaCl, 1 mM sodium orthovanadate and 10 mM NaF.
(§9) The mixture was then incubated at 37° C. for 20 min (SphK1)/45 min (SphK2).
(§10) To the 100 μL assay mixture, add 270 μl of chloroform/methanol/conc. HCl (100:200:1).
(§11) 20 μL of 5 M KCl was then added to the assay mixture.
(§12) 70 μL of chloroform was added to create phase separation. The solution was vortexed to mix well.
(§13) The solution was then centrifuged for 5 min at 13,000×g to fully separate the phases.
(§14) The upper aqueous/methanol phase was separated by aspiration.
(§15) 50 μL of the remaining lower chloroform phase […] was applied onto the TLC plate by repeatedly spotting a few microliters of liquid (<5 mm diameter circle) between each sample spot with the pipette tip. The liquid was then allowed to absorb into the plate before drying with a stream of air.
(§16) The TLC plate was developed in a glass TLC developing tank with 1-butanol/ethanol/glacial acetic acid/H2O (8:2:1:2) until the mobile phase is within 1 cm of the top of the TLC plate.
(§17) The TLC plate was then exposed to a storage phosphor screen overnight. Storage phosphor screens work by capturing images produced by ionising radiation (e.g. ^32P). The phosphorimager stimulates the screen which uses lasers to convert the latent signal to light. Light is proportional to the amount of radioactivity in the sample. The image is then quantified using standard quantification software (ImageQuant™). Whatman paper with the assay mixture dilutions, was included to assist quantification of the phosphor signal.
(§18) Once the storage phosphor screen was read using the phosphorimager, S1P spots, which have an Rf of 0.7 with the mobile phase employed, were quantified.
(§19) The S1P spot intensity can be converted to the amount of phosphate transferred/min/mg protein.

[3] = test system: PC3 prostate cancer cell lines; assay: Anticancer activity in PC3 cell line, CellTitre AQueous One cell viability assay; type: cell-based; conditions: concentration required to inhibit cell proliferation by 50%, 72 hours
Method: Measurement of Anticancer Activity in PC3 Cell Line Assays
PC3 prostate cancer cell lines were cultured in DMEM (containing 10% fetal calf serum and penicillin-streptomycin).
Before treatment with drug compounds, cells were plated at 2,500 cells/well in 96 well plates and incubated at 37° C. with 5% CO2 in a humidified incubator for 24 hours prior. Cells were only plated in columns 3-10 and rows C—F to ensure uniform humidity and warmth across all wells. The remaining wells were filled with 100 μL of phosphate buffered saline.
Drug stock solutions (50 or 10 mM) were diluted×1000 in media to a final concentration of either 50 μM or 10 μM with a DMSO vehicle concentration of 0.1%.
Cell culture supernatants were aspirated and replaced with drug containing media. Drug treatments were performed in duplicate wells, while potential plate layout-specific variation in cell growth was accounted for by addition of a vehicle control (0.1% DMSO).
Cells were then incubated with drug compounds at 37° C. with 5% CO2 in a humidified incubator for 72 hours prior to assay.
Media was diluted with CellTitre AQueous One Solution (Promega, Australia; Cat # G3580) according to manufacturer's instructions to produce a final concentration of 317 μg/mL.
Cell culture supernatants were then aspirated from wells and replaced with 100 μL of CellTitre solution. Triplicate cell-free control wells containing only CellTitre solution were also included in each assay.
Cells were then incubated at 37° C. with 5% CO2 in a humidified incubator for 1 hour at which time absorbance was read at 490 nm with an EnVision microplate reader (Perkin Elmer, Australia).
When analysing data, background absorbance (taken from cell-free control wells) was subtracted from each reading. […] For each drug concentration the mean (±SEM) is calculated and graphed using GraphPad Prism (version 5). A sigmoidal curved is fitted to the data and used to calculate the IC50 of each compound.

[4] = target: T3, recombinant human SphK2 (Homo sapiens, UniProt Q9NRA0); assay: SphK2 activity assay (32P-labelled S1P production); type: biochemical; conditions: 10 μM compound, % of activity compared to control (DMSO vehicle only); for remaining activity at 10 µM: read-out: SphK2% actvity at 10 μm
T3 construct: purchased Johnson and Johnson
T3 sequence (Q9NRA0 1-654): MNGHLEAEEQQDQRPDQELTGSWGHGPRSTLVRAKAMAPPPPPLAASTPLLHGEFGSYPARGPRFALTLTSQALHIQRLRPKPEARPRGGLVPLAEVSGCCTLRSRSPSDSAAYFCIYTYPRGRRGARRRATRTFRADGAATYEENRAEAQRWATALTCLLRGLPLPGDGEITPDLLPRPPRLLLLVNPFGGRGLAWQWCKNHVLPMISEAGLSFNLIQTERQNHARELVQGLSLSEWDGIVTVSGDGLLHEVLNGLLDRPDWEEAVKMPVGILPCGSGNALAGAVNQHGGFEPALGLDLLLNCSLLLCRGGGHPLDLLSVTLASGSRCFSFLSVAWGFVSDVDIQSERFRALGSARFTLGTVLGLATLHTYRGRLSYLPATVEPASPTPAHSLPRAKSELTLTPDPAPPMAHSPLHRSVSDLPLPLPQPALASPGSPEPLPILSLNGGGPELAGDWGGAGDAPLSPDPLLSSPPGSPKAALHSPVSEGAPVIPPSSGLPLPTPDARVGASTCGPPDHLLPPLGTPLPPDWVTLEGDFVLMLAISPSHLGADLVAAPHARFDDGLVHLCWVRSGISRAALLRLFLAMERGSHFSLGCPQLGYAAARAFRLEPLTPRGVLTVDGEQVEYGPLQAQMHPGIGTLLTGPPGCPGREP
Method: as §1, §2, §3, §4, §5, §6, §7, §8, §9, §10, §11, §12, §13, §14, §15, §16, §17, §18, §19

[5] = test system: MCF7 breast cancer cells; assay: Anticancer activity in MCF7 cell lines, MTS assay; type: cell-based; conditions: Homo sapiens, concentration required to inhibit cell proliferation by 50%, 72 hrs, read-out: MCF-7 IC50
Method: Measurement of Anticancer Activity in MCF7 Cell Lines
MCF7 breast cancer cells were treated with the test compounds and incubated at 37° C., 5% CO2 in air for 72 hrs. The MTS assay was conducted with addition of prepared MTS solution followed by 2 hr incubation, an OD reading and the raw data recorded. The data was managed in tabular form, values adjusted for vehicle control, and the adjusted values graphed as a sigmoidal curve and the EC50 value calculated.

[6] = target: T4, Dihydroceramide Desaturase-1 (Des1) (Homo sapiens, UniProt O15121); assay: Dihydroceramide desaturase-1 (Des1) activity by HPLC in intact Jurkat cells labeled with DhCer-C6-NBD; type: cell-based; conditions: intact Jurkat cells; for IC50: read-out: Des 1 IC50
T4 construct: These modifications included the use of parental Jurkat cells; endogenous in cells; host or cells: parental Jurkat cells
T4 sequence (O15121 1-323): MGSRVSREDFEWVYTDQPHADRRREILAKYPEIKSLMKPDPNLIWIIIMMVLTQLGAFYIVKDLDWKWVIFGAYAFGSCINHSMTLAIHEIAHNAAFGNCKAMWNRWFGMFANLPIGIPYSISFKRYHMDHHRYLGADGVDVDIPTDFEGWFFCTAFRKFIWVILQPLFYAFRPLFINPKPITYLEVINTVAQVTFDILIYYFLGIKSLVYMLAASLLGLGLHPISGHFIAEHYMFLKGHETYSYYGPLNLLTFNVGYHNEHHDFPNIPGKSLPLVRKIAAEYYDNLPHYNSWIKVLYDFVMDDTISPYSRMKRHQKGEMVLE
Method: Measurement of Dihydroceramide Desaturase-1 (Des1) Activity:
These modifications included the use of parental Jurkat cells, 0.5% serum in the culture media, and cell harvesting via centrifugation at 500×g to maximise ceramide extraction. Extracted samples (50 ul) were analysed on a Waters HPLC coupled to a fluorescence detector using a 30 cm C18 reverse-phase column eluted with 1 ml/min 20% H2O and 80% acetonitrile, both with a 0.1% of trifluoroacetic acid.

[7] = test system: Neonatal cardiac fibroblasts (NCFs) collagen synthesis; assay: Inhibition of NCF collagen synthesis by 3H-proline incorporation; type: cell-based
Method: Neonatal cardiac fibroblasts (NCFs) were isolated as previously reported (Lekawanvijit, S. Wang, B. H., Krum, H. Eur Heart J. 2010, 31(14), 1771-9). After isolation, NCF (passage 0) were placed into T75 cell culture flasks (BD Falcon, NSW, Australia) and maintained in high-glucose (25 mM) DMEM containing 5.33 mM KCl (Invitrogen, Mount Waverley, Vic, Australia) in the presence of 1% antibiotic/antimycotic (Invitrogen, Mount Waverley, Vic, Australia) and 10% fetal bovine serum (FBS) (JRH biosciences). Cells were incubated at 37° C. with 5% CO2 for overnight and then the media were changed. NCF confluence was checked microscopically and NCF were sub-cultured. After removing media and 3× wash with warm 1×PBS, 2 ml of warm 0.05% trypsin-EDTA was added to each flask. Flasks were placed back into the 37° C. incubator for 1-2 minutes to allow cells to lift off the surface of the flasks. Trypsin was inactivated by adding 8 ml of DMEM containing 10% FBS. NCF (passage 1) were centrifuged for 6 minutes at 1300 rpm at RT. Cell pellets was washed 3× with DMEM+10% FBS and resuspended in DMEM+10% FBS. Cells were then placed into new flasks and incubated at 37° C. with 5% CO2 for 48 hours.
To seed NCF, steps from trypsinization to resuspension were repeated as above. NCF (passage 2) were counted with the ‘Countess’ cell counter. […]

T1 sequence (Q9NYA1 whole entry): as the sequence (Q9NYA1 whole entry) above

**Q.** Which “% SphK1a degradation at 10 μM” value [1] does the source give for “3-(4-(5-(4-Chlorophenyl)-1,3,4-oxadiazol-2-yl)phenyl)-1,2,4-oxadiazol-5(4H)-one [Example E-15]” here?
**A.** 50%

**Q.** And the “SphK1% activity at 10 μm” value [2]?
**A.** 50-80%

**Q.** And the IC50 [3]?
**A.** 0.1 to 1 µM

**Q.** And the “SphK2% actvity at 10 μm” value [4]?
**A.** 80-100%

**Q.** For O=C(Nc1ccc(O)cc1)c1nc(-c2ccc(Cl)cc2)cs1 [Example E-5, 4-(4-Chlorophenyl)-N-(4-hydroxyphenyl)thiazole-2-carboxamide], which IC50 [5] is on record?
**A.** 10 to 100 µM

**Q.** And the IC50 ([3]; Homo sapiens, PC-3)?
**A.** 10 to 100 µM

**Q.** With Oc1ccc(Nc2nnc(-c3ccccc3)o2)cc1 [Example E-25, 4-((5-Phenyl-1,3,4-oxadiazol-2-yl)amino)phenol] as the compound, how does the melting point read?
**A.** 231 °C

**Q.** What about the IC50 [6] of the same compound?
**A.** 1 to 10 µM

**Q.** For Clc1ccc(-c2nnc(Nc3ccc(-c4nn[nH]n4)cc3)o2)cc1 [Example E-27, 5-(4-Chlorophenyl)-N-[4-(1H-tetrazol-5-yl)phenyl]-1,3,4-oxadiazol-2-amine], which “Des 1 IC50” value [6] is on record?
**A.** inactive

**Q.** And the activity at 10 µM [2]?
**A.** 20 to 50%

**Q.** And the IC50 ([3]; Homo sapiens, PC-3)?
**A.** 10 to 100 µM

**Q.** And the remaining activity at 10 µM [4]?
**A.** 50 to 80%

**Q.** What does the source list for O=S1NC(c2ccc(Nc3nnc(-c4ccc(Cl)cc4)o3)cc2)=NO1 (centres unmarked) [Example E-28, 5-(4-Chlorophenyl)-N-[4-(2-oxido-3H-1,2,3,5-oxathiadiazol-4-yl)phenyl]-1,3,4-oxadiazol-2-amine]?
**A.** IC50 [6]: 1 to 10 µM; activity at 10 µM [2]: < 1%; IC50 ([3]; Homo sapiens, PC-3): 10 to 100 µM; remaining activity at 10 µM [4]: 5 to 20%

**Q.** Which “SphK1% activity at 10 μm” value [2] does the source give for “(Z)-4-(5-(4-Chlorophenyl)-1,3,4-oxadiazol-2-yl)-N′-hydroxybenzimidamide [Example E-14]” here?
**A.** 100-150%

**Q.** And the IC50 [3]?
**A.** > 100 µM

**Q.** And the “SphK2% actvity at 10 μm” value [4]?
**A.** 80-100%

**Q.** And the “EC (effective concentration: concentration required to reduce collagen synthesis to a level equal to or below unstimulated control)” value [7]?
**A.** 0.5 to 5 µM
